Test results: PMC3845904 (Chemical research in toxicology, 2009)
Where two headings read alike, the source gives them in different places.

Key:
human P450 1B1 [1] = molecular target: T1, human P450 1B1 (Homo sapiens, UniProt Q16678); conditions: pH 7.4
T1 sequence (Q16678 1-543): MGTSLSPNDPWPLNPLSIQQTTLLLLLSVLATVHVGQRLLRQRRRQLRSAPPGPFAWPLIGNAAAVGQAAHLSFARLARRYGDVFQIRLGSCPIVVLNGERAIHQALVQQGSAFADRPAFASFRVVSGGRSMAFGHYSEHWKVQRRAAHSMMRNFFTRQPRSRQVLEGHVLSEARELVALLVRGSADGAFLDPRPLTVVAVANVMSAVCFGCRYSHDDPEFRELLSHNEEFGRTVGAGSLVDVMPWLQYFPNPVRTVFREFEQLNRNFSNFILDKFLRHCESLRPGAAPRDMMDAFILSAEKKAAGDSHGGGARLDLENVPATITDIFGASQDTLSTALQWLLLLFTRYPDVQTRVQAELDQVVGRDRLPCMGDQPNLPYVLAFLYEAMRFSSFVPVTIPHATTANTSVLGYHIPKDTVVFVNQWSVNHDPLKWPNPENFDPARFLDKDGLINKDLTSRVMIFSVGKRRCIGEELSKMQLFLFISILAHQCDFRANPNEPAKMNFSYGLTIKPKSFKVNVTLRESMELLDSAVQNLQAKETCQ

human P450 1B1 [2] = molecular target: T1, human P450 1B1
human P450 1B1 [3] = molecular target: T1, human P450 1B1; assay: Inhibition of 7-ethoxyresorufin O-deethylation; conditions: results not presented
human P450 1B1 [4] = molecular target: T1, human P450 1B1; assay: Spectral binding titration; conditions: purified P450 1B1 1.0 μM, ND = not detected at 100 μM
human P450 1B1 [5] = molecular target: T1, human P450 1B1; assay: biochemical

Kd (human P450 1B1 [1]) [nM]	IC50 (human P450 1B1 [2]) [nM]	manner of inhibition of P450 1B1 EROD activity (human P450 1B1 [3])	Reverse Type I spectra ΔAmax/Ks (magnitude of spectral binding) (human P450 1B1 [4])	Reverse Type I spectra ΔAmax (human P450 1B1 [4]; means ± SEs)	IC50 (human P450 1B1 [5]) [nM]	Structure (SMILES)
54000 ± 6200	1500 ± 300					CCC#Cc1ccc(-c2ccccc2)cc1 [4BuB, 4-butinylbiphenyl]
		mechanism-based manner	0.0062	0.074 ± 0.008	1800 ± 200	CC#Cc1ccc(-c2ccccc2)cc1 [4PB, 4-(1-propynyl)biphenyl]
